Laboratory results as given in ChEMBL document CHEMBL3243936, “Facile syntheses of potent dopaminergic argonists and their effect on neurotransmitter release” (J Med Chem, 1978).
Activity calls are given as the source filed them. The rule behind the calls is not given here.

Columns and labels:
[1] = target: Sodium-dependent serotonin transporter (Rattus norvegicus) (UniProt P31652); test: Agonist activity at Wistar rat brain serotonin transporter assessed as tritium efflux by measuring [3H]serotonin release at 2 uM after 20 to 30 mins by liquid scintillation counting analysis relative to control
Sodium-dependent serotonin transporter (Rattus norvegicus), sequence (P31652 whole entry): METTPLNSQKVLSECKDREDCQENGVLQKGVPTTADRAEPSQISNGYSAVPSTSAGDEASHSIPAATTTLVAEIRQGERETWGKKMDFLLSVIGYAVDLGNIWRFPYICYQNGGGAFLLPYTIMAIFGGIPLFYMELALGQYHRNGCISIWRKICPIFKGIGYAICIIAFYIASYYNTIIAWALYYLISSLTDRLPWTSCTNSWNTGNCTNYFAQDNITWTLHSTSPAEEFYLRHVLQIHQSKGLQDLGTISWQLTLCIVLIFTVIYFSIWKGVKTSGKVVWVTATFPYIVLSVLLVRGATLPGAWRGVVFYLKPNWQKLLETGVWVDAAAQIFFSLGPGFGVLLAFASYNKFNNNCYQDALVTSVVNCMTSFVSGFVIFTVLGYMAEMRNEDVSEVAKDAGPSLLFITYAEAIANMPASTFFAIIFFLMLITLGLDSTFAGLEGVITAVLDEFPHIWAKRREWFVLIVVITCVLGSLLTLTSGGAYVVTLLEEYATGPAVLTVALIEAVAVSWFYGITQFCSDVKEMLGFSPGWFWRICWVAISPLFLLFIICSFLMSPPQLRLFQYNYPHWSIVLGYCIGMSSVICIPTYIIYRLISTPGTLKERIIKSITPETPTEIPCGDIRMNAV

[2] = species: Rattus norvegicus; test: Agonist activity at Wistar rat brain GABA transporter assessed as tritium efflux by measuring [3H]GABA release at 2 uM after 20 to 30 mins by liquid scintillation counting analysis relative to control
[3] = target: Sodium-dependent dopamine transporter (Rattus norvegicus) (UniProt P23977); test: Agonist activity at Wistar rat cortex dopamine transporter assessed as tritium efflux by measuring [3H]noradrenaline release at 1 uM after 20 to 30 mins by liquid scintillation counting analysis in presence of nomifensine; format: tissue-based
Sodium-dependent dopamine transporter (Rattus norvegicus), sequence (P23977 whole entry): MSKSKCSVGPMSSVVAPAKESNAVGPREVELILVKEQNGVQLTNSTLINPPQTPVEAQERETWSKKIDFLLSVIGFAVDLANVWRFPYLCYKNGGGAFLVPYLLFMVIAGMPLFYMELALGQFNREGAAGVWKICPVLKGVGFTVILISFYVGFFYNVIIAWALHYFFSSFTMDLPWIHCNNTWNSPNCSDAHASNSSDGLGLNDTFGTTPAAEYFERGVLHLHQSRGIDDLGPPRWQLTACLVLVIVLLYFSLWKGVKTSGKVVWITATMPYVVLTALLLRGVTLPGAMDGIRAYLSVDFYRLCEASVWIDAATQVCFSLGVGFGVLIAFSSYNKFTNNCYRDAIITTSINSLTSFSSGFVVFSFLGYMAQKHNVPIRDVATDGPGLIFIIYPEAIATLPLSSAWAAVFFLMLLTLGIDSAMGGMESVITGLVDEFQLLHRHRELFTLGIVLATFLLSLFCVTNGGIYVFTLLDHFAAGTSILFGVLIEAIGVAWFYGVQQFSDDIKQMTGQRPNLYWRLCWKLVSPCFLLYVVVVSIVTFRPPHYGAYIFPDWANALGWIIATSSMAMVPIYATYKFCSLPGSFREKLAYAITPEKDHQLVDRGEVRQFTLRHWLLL

[4] = target: T1, Vesicular acetylcholine transporter (Rattus norvegicus) (UniProt Q62666); test: Agonist activity at Wistar rat brain cholinergic transporter assessed as tritium efflux by measuring [3H]choline release at 2 uM after 20 to 30 mins by liquid scintillation counting analysis relative to control
T1 sequence (whole entry): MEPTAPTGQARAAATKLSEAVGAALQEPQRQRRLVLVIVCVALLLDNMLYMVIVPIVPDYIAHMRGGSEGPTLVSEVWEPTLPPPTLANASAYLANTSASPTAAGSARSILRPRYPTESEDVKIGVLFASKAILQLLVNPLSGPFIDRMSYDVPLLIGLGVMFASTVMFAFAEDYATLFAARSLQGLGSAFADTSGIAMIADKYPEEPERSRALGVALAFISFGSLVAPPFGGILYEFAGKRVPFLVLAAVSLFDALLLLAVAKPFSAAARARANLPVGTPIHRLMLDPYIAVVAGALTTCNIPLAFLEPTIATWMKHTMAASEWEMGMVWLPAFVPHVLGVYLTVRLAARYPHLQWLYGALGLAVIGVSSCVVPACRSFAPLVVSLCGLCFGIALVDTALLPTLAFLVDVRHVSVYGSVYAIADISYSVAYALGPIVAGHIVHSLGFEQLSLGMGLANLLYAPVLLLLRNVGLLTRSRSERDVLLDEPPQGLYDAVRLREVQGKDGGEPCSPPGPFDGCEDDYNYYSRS

[5] = target: Sodium-dependent dopamine transporter (Rattus norvegicus) (UniProt P23977); test: Agonist activity at Wistar rat striatum dopamine transporter assessed as tritium efflux by measuring [3H]dopamine release at 2 uM after 20 mins by liquid scintillation counting analysis relative to total tissue content
[6] = target: Sodium-dependent dopamine transporter (Rattus norvegicus) (UniProt P23977); test: Agonist activity at Wistar rat striatum dopamine transporter assessed as tritium efflux by measuring [3H]dopamine release at 1 uM after 20 to 30 mins by liquid scintillation counting analysis in presence of nomifensine

NC1CCc2cc(O)c(O)cc2C1 (stereo unspecified)
Activity [1]: inactive
Activity [2]: inactive
Activity [3]: inactive
Activity [4]: inactive
Activity [5]: 25.1%
Activity [6]: inactive

NC1CCc2ccccc2C1 (stereo unspecified)
Activity [5]: -0.7%

NC1CCc2c(ccc(O)c2O)C1 (stereo unspecified)
Activity [1]: inactive
Activity [2]: inactive
Activity [4]: inactive
Activity [5]: 6.5%
